Experimental data reported in patent US11286268B1, “EIF4E-inhibiting compounds and methods” (EFFECTOR THERAPEUTICS, INC., priority 2019, dated 2022).
Read-outs that look alike come from different tables or passages of the source.

Biological target: recombinant eIF4E (Homo sapiens (Human), UniProt P06730)
Experiment: Fluorescence polarization competition assay for eIF4E binding potency
Summary of the method: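 IC50 derived from fluorescence polarization over an 8-point, 3-fold compound series after 30 min room-temperature equilibration in the dark. Mix: eIF4E 75 nM pre-bound 5 min to 20 nM EDA-m^7GDP-ATTO-550; buffer 20 mM Tris pH 7.5, 100 mM NaCl, 1 mM DTT, 0.02% Tween-20; DMSO 1%.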

[1] = fluorescence polarization competition, 75 nM recombinant eIF4E, 20 nM EDA-m7GDP-ATTO-550, IC50 class, read-out: elF4E FP
[2] = inhibition of eIF4E/EDA-m7GDP-ATTO-550 binding by 50%, Table 4B calculated values, read-out: IC50

Chain of recombinant eIF4E (P06730 whole entry): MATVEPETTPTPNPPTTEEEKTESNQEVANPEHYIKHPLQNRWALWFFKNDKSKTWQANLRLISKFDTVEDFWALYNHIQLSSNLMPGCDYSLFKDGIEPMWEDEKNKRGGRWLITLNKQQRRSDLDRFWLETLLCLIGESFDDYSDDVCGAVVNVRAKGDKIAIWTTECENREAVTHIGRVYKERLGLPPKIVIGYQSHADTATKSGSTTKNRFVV

Row | IC50 [1] | IC50 [2] | Structure (SMILES)
1 | 0.05 to 1 µM | 0.245 µM | CCc1cc(-c2cc(Cl)ccc2OCCn2c(N)nc3cc(Cl)cc(C#N)c3c2=O)c2scc(C(=O)O)c2n1 [compound 1077]
2 | 0.05 to 1 µM | 0.347 µM | CCc1cc(-c2cc(Cl)ccc2OCCn2c(=O)[nH]c3cc(Cl)cc(C#N)c3c2=O)c2scc(C(=O)O)c2n1 [compound 1078]
3 |  | 0.0559 µM | Cc1cc(-c2cc(Cl)ccc2OCCn2c(C)nc3cc(C(F)(F)F)c(N4CCN(C)CC4)c(C#N)c3c2=O)c2scc(C(O)(O)C(F)(F)F)c2n1 [compound 1079]
4 | 0.05 to 1 µM | 0.105 µM | Cc1cc(-c2cc(Cl)ccc2OCCn2c(C)nc3cc(C(F)(F)F)c(N4CCN(C)CC4)c(C#N)c3c2=O)c2scc(C(O)C(F)(F)F)c2n1 (centres unmarked) [compound 1080]
5 | > 1 µM | 1.04 µM | Cc1cc(-c2cc(Cl)ccc2OCCn2c(C)nc3cc(C(F)(F)F)c(-c4cc(F)cnc4C)c(C#N)c3c2=O)c2scc(C(=O)OCCN3CCCC3)c2n1 [compound 1081]
6 | 0.05 to 1 µM | 0.903 µM | Cc1cc(-c2cc(Cl)ccc2OCCn2c(C)nc3cc(C(F)(F)F)c(N4CCN(C)CC4)c(C#N)c3c2=O)c2scc(C(=O)OC(C)OC(=O)OC3CCCCC3)c2n1 (centres unmarked) [compound 1082]
7 | < 0.05 µM | 0.044 µM | CCc1cc(-c2cc(Cl)ccc2OCCn2c(C)nc3cc(C(F)(F)F)c(N4CCN(C)CC4)cc3c2=O)c2scc(C(=O)O)c2n1 [compound 1083]
8 | < 0.05 µM | 0.015 µM | CCc1cc(-c2cc(Cl)ccc2OCCn2c(C)nc3cc(C(F)(F)F)c(N4CCN(C)CC4)nc3c2=O)c2scc(C(=O)O)c2n1 [compound 1084]
9 | 0.05 to 1 µM | 0.0543 µM | CCc1cc(-c2cc(Cl)ccc2OCCn2c(C)nc3cc(C(F)(F)F)c(N4CCN(C)CC4)c(C#N)c3c2=O)c2scc(C(=O)O)c2n1 [compound 1085]
10 | < 0.05 µM | 0.0384 µM | CCc1cc(-c2cc(Cl)ccc2OCCn2c(C)nc3cnc(N4CCN(C)CC4)c(C#N)c3c2=O)c2scc(C(=O)O)c2n1 [compound 1086]
11 | < 0.05 µM | 0.0392 µM | CCc1cc(-c2cc(Cl)ccc2OCCn2c(C)nc3cc(C(F)(F)F)c(N4CCN(C)CC4)c(C#N)c3c2=O)c2sc(C)c(C(=O)O)c2n1 [compound 1087]
12 | 0.05 to 1 µM | 0.0533 µM | CCc1cc(-c2cc(Cl)ccc2OCCn2c(C)nc3cc(C(F)(F)F)c(C4=CCN(C)CC4)c(C#N)c3c2=O)c2scc(C(=O)O)c2n1 [compound 1088]
13 | 0.05 to 1 µM | 0.618 µM | Cc1cc(-c2cc(Cl)ccc2OCCn2c(C)nc3cnc(N4CCN(C)CC4)c(C#N)c3c2=O)c2sccc2n1 [compound 1089]

Second part, the compound before the results:

Row | Structure (SMILES) | IC50 [1] | IC50 [2]
14 | Cc1cc(-c2cc(Cl)ccc2OCCn2c(C)nc3cc(Cl)c(C4CCC4)c(C#N)c3c2=O)c2scc(C(=O)O)c2n1 [compound 1047] | < 0.05 µM | 0.0212 µM
15 | Cc1cc(-c2cc(Cl)ccc2OCCn2c(C)nc3cc(C(F)F)c(C4CC4)c(C#N)c3c2=O)c2scc(C(=O)O)c2n1 [compound 1048] | < 0.05 µM | 0.0137 µM
16 | Cc1cc(-c2cc(Cl)ccc2OCCn2c(C)nc3cc(C(F)(F)F)c(C4CC4)c(C#N)c3c2=O)c2scc(C(=O)O)c2n1 [compound 1049] | < 0.05 µM | 0.00935 µM
17 | Cc1cc(-c2cc(Cl)ccc2OCCn2c(C)nc3cc(Cl)c(C4CC4)c(C#N)c3c2=O)c2scc(C(=O)O)c2n1 [compound 1050] | < 0.05 µM | 0.0195 µM
18 | Cc1cc(-c2cc(Cl)ccc2OCCn2c(C)nc3cnc(-c4cc(F)cnc4C)c(C#N)c3c2=O)c2scc(C(=O)O)c2n1 [compound 1051] | < 0.05 µM | 0.00502 µM
19 | Cc1cc(-c2cc(Cl)ccc2OCCn2c(C)nc3cnc(-c4cc(F)ccc4C)c(C#N)c3c2=O)c2scc(C(=O)O)c2n1 [compound 1052] | < 0.05 µM | 0.00546 µM
20 | CC(=O)N(C)c1ncc2nc(C)n(CCOc3ccc(Cl)cc3-c3cc(C)nc4c(C(=O)O)csc34)c(=O)c2c1C#N [compound 1053] | < 0.05 µM | 0.00508 µM
21 | Cc1cc(-c2cc(Cl)ccc2OCCn2c(C)nc3cc(Cl)c(N4CCC(O)C4)c(C#N)c3c2=O)c2scc(C(=O)O)c2n1 (centres unmarked) [compound 1054] | < 0.05 µM | 0.0186 µM
22 | Cc1cc(-c2cc(Cl)ccc2OCCn2c(C)nc3cc(C(F)(F)F)c(N4CC(C)(O)C4)c(C#N)c3c2=O)c2scc(C(=O)O)c2n1 [compound 1055] | < 0.05 µM | 0.0117 µM
23 | Cc1cc(-c2cc(Cl)ccc2OCCn2c(C)nc3cnc(N4CCC(O)C4)c(C#N)c3c2=O)c2scc(C(=O)O)c2n1 (centres unmarked) [compound 1056] | < 0.05 µM | 0.0161 µM
24 | Cc1cc(-c2cc(Cl)ccc2OCCn2c(C)nc3cnc(N4CC(C)(O)C4)c(C#N)c3c2=O)c2scc(C(=O)O)c2n1 [compound 1057] | < 0.05 µM | 0.0125 µM
25 | Cc1cc(-c2cc(Cl)ccc2OCCn2c(C)nc3cc(C(F)(F)F)c(-c4ccc(Cl)nc4)c(C#N)c3c2=O)c2scc(C(=O)O)c2n1 [compound 1059] | < 0.05 µM | 0.0111 µM
26 | COc1ccc(-c2c(Cl)cc3nc(C)n(CCOc4ccc(Cl)cc4-c4cc(C)nc5c(C(=O)O)csc45)c(=O)c3c2C#N)cn1 [compound 1061] | < 0.05 µM | 0.00854 µM
27 | CCc1cc(-c2cc(Cl)ccc2OCCn2c(C)nc3cnc(CC)c(C#N)c3c2=O)c2scc(C(=O)O)c2n1 [compound 1062] | < 0.05 µM | 0.00663 µM
28 | CCCc1ncc2nc(C)n(CCOc3ccc(Cl)cc3-c3cc(C)nc4c(C(=O)O)csc34)c(=O)c2c1C#N [compound 1063] | < 0.05 µM | 
29 | Cc1cc(-c2cc(Cl)ccc2OCCn2c(C)nc3cnc(CCF)c(C#N)c3c2=O)c2scc(C(=O)O)c2n1 [compound 1064] | < 0.05 µM | 0.0162 µM
30 | Cc1cc(-c2cc(Cl)ccc2OCCn2c(C)nc3cnc(C(C)F)c(C#N)c3c2=O)c2scc(C(=O)O)c2n1 (centres unmarked) [compound 1065] | < 0.05 µM | 0.0186 µM
31 | COCc1ncc2nc(C)n(CCOc3ccc(Cl)cc3-c3cc(C)nc4c(C(=O)O)csc34)c(=O)c2c1C#N [compound 1066] | 0.05 to 1 µM | 0.0574 µM
32 | CCOc1ncc2nc(C)n(CCOc3ccc(Cl)cc3-c3cc(C)nc4c(C(=O)O)csc34)c(=O)c2c1C#N [compound 1067] | < 0.05 µM | 0.0105 µM
33 | CCc1cc(-c2cc(Cl)ccc2OCCn2c(C)nc3cnc(N)c(C#N)c3c2=O)c2scc(C(=O)O)c2n1 [compound 1071] | 0.05 to 1 µM | 0.054 µM
34 | Cc1cc(-c2cc(Cl)ccc2OCCn2c(C)nc3cnc(N)c(C#N)c3c2=O)c2scc(C(=O)O)c2n1 [compound 1072] | < 0.05 µM | 0.0372 µM
35 | CCOc1c(C(F)(F)F)cc2nc(C)n(CCOc3ccc(Cl)cc3-c3cc(C)nc4c(C(=O)O)csc34)c(=O)c2c1C#N [compound 1073] | 0.05 to 1 µM | 0.0581 µM
36 | Cc1cc(-c2cc(Cl)ccc2OCCn2c(C)nc3cc(C(F)(F)F)c(OCC(F)(F)F)c(C#N)c3c2=O)c2scc(C(=O)O)c2n1 [compound 1074] | < 0.05 µM | 0.0174 µM
37 | Cc1cc(-c2cc(Cl)ccc2OCCn2c(C)nc3cc(C(F)(F)F)c(N4CCN(C)CC4=O)c(C#N)c3c2=O)c2scc(C(=O)O)c2n1 [compound 1075] | < 0.05 µM | 0.00664 µM
38 | CCCc1cc(-c2cc(Cl)ccc2OCCn2c(C)nc3cnc(C4CC4)c(C#N)c3c2=O)c2scc(C(=O)O)c2n1 [compound 1076] | < 0.05 µM | 0.0245 µM
